{
  "source": "paper PMC7693034",
  "about": "“Identification of Amino Acid Residues Responsible for C−H Activation in Type‐III Copper Enzymes by Generating Tyrosinase Activity in a Catechol Oxidase” (Angewandte Chemie (International Ed. in English), 2020)",
  "assay_in_all_cases": "enzyme kinetics, diphenolase activity",
  "format_in_all_cases": "biochemical",
  "key": {"[1]": {"target": "T1, CgAUS (aurone synthase from Coreopsis grandiflora) (Coreopsis grandiflora, UniProt A0A075DN54, C182S)", "T1 construct": "recombinant from E. coli, purified to homogeneity", "T1 sequence (A0A075DN54 86-602 C182S)": "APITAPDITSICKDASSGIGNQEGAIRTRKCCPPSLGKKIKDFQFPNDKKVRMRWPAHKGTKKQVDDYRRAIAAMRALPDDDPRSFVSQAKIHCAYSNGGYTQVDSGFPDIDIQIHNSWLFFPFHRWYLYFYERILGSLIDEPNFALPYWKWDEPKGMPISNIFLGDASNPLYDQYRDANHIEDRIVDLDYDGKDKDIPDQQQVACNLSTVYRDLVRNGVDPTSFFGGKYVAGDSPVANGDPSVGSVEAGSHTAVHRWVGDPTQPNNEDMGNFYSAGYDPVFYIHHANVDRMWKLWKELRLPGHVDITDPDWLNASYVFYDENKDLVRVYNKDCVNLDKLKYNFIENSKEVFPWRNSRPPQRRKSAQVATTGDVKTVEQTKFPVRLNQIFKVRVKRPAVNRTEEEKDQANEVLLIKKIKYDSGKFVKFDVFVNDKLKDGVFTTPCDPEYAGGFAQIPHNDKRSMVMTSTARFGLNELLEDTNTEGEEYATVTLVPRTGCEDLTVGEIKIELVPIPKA", "settings": "type-III copper enzyme; read-out: Dopamine / K m", "from_the_text": "(§1) enzyme kinetics, diphenolase activity on CgAUS (aurone synthase from Coreopsis grandiflora)"}, "[2]": {"target": "T2, CgAUS (aurone synthase from Coreopsis grandiflora) (Coreopsis grandiflora, UniProt A0A075DN54, C182S/T338D/R342D)", "T2 construct": "recombinant from E. coli, purified to homogeneity", "T2 sequence (A0A075DN54 86-602 C182S/T338D/R342D)": "T1 sequence (A0A075DN54 86-602 C182S) with T253D, R257D", "settings": "type-III copper enzyme; read-out: Dopamine / K m", "from_the_text": "as §1"}, "[3]": {"target": "T3, CgAUS (aurone synthase from Coreopsis grandiflora) (Coreopsis grandiflora, UniProt A0A075DN54)", "T3 construct": "recombinant from E. coli, purified to homogeneity", "T3 sequence (A0A075DN54 86-602)": "T1 sequence (A0A075DN54 86-602 C182S) with S97C", "settings": "type-III copper enzyme, copper content 46.1%; read-out: Dopamine / K m", "from_the_text": "as §1"}, "[4]": {"target": "T4, CgAUS (aurone synthase from Coreopsis grandiflora) (Coreopsis grandiflora, UniProt A0A075DN54, T338D)", "T4 construct": "recombinant from E. coli, purified to homogeneity", "T4 sequence (A0A075DN54 86-602 T338D)": "T1 sequence (A0A075DN54 86-602 C182S) with S97C, T253D", "settings": "type-III copper enzyme; read-out: Dopamine / K m", "from_the_text": "as §1"}, "[5]": {"target": "T5, CgAUS (aurone synthase from Coreopsis grandiflora) (Coreopsis grandiflora, UniProt A0A075DN54, T338D/R342D)", "T5 construct": "recombinant from E. coli, purified to homogeneity", "T5 sequence (A0A075DN54 86-602 T338D/R342D)": "T1 sequence (A0A075DN54 86-602 C182S) with S97C, T253D, R257D", "settings": "type-III copper enzyme; read-out: Dopamine / K m", "from_the_text": "as §1"}, "[6]": {"target": "T6, CgAUS (aurone synthase from Coreopsis grandiflora) (Coreopsis grandiflora, UniProt A0A075DN54, R342D)", "T6 construct": "recombinant from E. coli, purified to homogeneity", "T6 sequence (A0A075DN54 86-602 R342D)": "T1 sequence (A0A075DN54 86-602 C182S) with S97C, R257D", "settings": "type-III copper enzyme; read-out: Dopamine / K m", "from_the_text": "as §1"}},
  "note": "Residue numbers refer to the chain shown, from its start.",
  "data": [
    {"compound": "NCCc1ccc(O)c(O)c1", "note": "[dopamine]", "values": [
      {"measurement": "Km", "setting": "[1]", "value": "1260 ± 40", "unit": "µM"},
      {"measurement": "Km", "setting": "[2]", "value": 60, "unit": "µM"},
      {"measurement": "Km", "setting": "[3]", "value": "8630 ± 280", "unit": "µM"},
      {"measurement": "Km", "setting": "[4]", "value": "1930 ± 120", "unit": "µM"},
      {"measurement": "Km", "setting": "[5]", "value": "240 ± 20", "unit": "µM"},
      {"measurement": "Km", "setting": "[6]", "value": "1260 ± 130", "unit": "µM"}
    ]}
  ]
}
